These results are taken from US4255435A, “Triazole compounds” (priority 1980, dated 1981).

In brackets after ≈: the same amount, converted by molar mass.

The first series has as its system larvae of the diamond back moth (Plutella maculipennis). Put plainly: Mortality of larvae of the diamond back moth on treated cabbage leaf. Format: in vivo. To be noted: Plutella, 48 h, read-out: Plutella maculipennis LD50 values. The protocol:
Ten larvae were placed in a tube together with a square inch of cabbage leaf which had been dipped in the test solution and allowed to dry. After twenty-four hours untreated cabbage was added for food and after a further twenty-four hours an assessment was made of the mortality of the larvae.
Two replicates were carried out for each test compound and test solutions of varying concentrations employed so that an LD50 value could be calculated.
Turning to `Cc1ncn(C(=O)N(C)C)n1` [1-dimethylcarbamoyl-3-methyl-1,2,4-triazole], the LC50 was over 5000 µg/mL.

With `CN(C)C(=O)n1cnc(Cl)n1` [1-dimethylcarbamoyl-3-chloro-1,2,4-triazole], the LC50 is over 5000 µg/mL.

Turning to `CCSc1ncn(C(=O)N(CC#N)CC#N)n1` [1-di(cyanomethyl)carbamoyl-3-ethylthio-1,2,4-triazole], the LC50 was over 5000 µg/mL.

Take `CSc1nc(-c2ccccc2)nn1C(=O)N(C)C` [1-dimethylcarbamoyl-3-phenyl-5-methylthio-1,2,4-triazole]: the LC50 was over 5000 µg/mL.

Regarding `CN(C)C(=O)n1cnc(SSc2ncn(C(=O)N(C)C)n2)n1` [1-dimethylcarbamoyl-3-(1-dimethylcarbamoyl-1,2,4-triazole-3-yldithio)-1,2,4,-triazole], the LC50 is over 5000 µg/mL.

On to `CCOC(=O)CSc1nc(C)n(C(=O)N(C)C)n1` [1-dimethylcarbamoyl-3-ethoxycarbonylmethylthio-5-methyl-1,2,4-triazole], for which the LC50 was over 5000 µg/mL.

Take `C=CCN(CC=C)C(=O)n1cnc(SCC(=O)OC)n1` [1-diallylcarbamoyl-3-methoxycarbonylmethylthio-1,2,4-triazole]: the LC50 is over 5000 µg/mL.

For `CN(C)C(=O)n1cncn1` [1-dimethylcarbamoyl-1,2,4-triazole], the LC50 is 1250 µg/mL (≈ 8.92 mM).

As for `Cc1nc(C)n(C(=O)N(C)C)n1` [1-dimethylcarbamoyl-3,5-dimethyl-1,2,4-triazole], the LC50 is over 5000 µg/mL.

Regarding `CCc1nc(SC)n(C(=O)N(C)C)n1` [1-dimethylcarbamoyl-3-ethyl-5-methylthio-1,2,4-triazole], the LC50 came to 1900 µg/mL (≈ 8.87 mM).

As for `CN(C)C(=O)n1cnc(Sc2ccc([N+](=O)[O-])cc2[N+](=O)[O-])n1` [1-dimethylcarbamoyl-3-(2,4-dinitrophenylthio)-1,2,4-triazole], the LC50 was over 5000 µg/mL.

Consider `CSc1ncn(C(=O)N(C)C)n1` [1-dimethylcarbamoyl-3-methylthio-1,2,4-triazole], for which the LC50 was 2300 µg/mL (≈ 12.3 mM).

For the compound `CCCCCCCCCCCCSc1nc(C)n(C(=O)N(C)C)n1` [1-dimethylcarbamoyl-3-dodecylthio-5-methyl-1,2,4-triazole], the LC50 is over 5000 µg/mL.

Turning to `CCCCCCSc1ncn(C(=O)N(C)C)n1` [1-dimethylcarbamoyl-3-n-hexylthio-1,2,4-triazole], the LC50 was over 5000 µg/mL.

As to `Cc1nc(Sc2ccc([N+](=O)[O-])cc2)nn1C(=O)N(C)C` [1-dimethylcarbamoyl-3-p-nitrophenylthio-5-methyl-1,2,4-triazole], the LC50 is over 5000 µg/mL.

On to `C=CCN(CC=C)C(=O)n1cnc(SCCN(CC)CC)n1` [1-diallylcarbamoyl-3-(2-diethylaminoethylthio)-1,2,4-triazole], for which the LC50 is over 5000 µg/mL.

`Cc1nc(SCc2ccccc2)nn1C(=O)N(C)C` [1-dimethylcarbamoyl-3-benzylthio-5-methyl-1,2,4-triazole]: the LC50 is over 5000 µg/mL.

In the case of `CCCCCCCCCCCCSc1ncn(C(=O)N(C)C)n1` [1-dimethylcarbamoyl-3-dodecylthio-1,2,4-triazole], the LC50 is over 5000 µg/mL.

`CN(C)C(=O)n1cnc(SC2CCCCC2)n1` [1-dimethylcarbamoyl-3-cyclohexylthio-1,2,4-triazole]: the LC50 is over 5000 µg/mL.

`CCCCCCCCCCCc1nc(SC)n(C(=O)N(C)C)n1` [1-dimethylcarbamoyl-3-undecyl-5-methylthio-1,2,4-triazole]: the LC50 is over 5000 µg/mL.

For `CC1CCN(C(=O)n2cncn2)CC1` [1-(4-methylpiperidinocarbonyl)-1,2,4-triazole], the LC50 was over 5000 µg/mL.

On to `CN(C)C(=O)n1cnc(Br)n1` [1-dimethylcarbamoyl-3-bromo-1,2,4-triazole], for which the LC50 is over 5000 µg/mL.

Regarding `CSc1nc(C)nn1C(=O)N(C)C` [1-dimethylcarbamoyl-3-methyl-5-methylthio-1,2,4-triazole], the LC50 was found to be 2200 µg/mL (≈ 11 mM).

Staying with this series, now noted: Table 1; cabbage leaf dipped in test solution, mortality after 24 + 24 hours, two replicates; 2880 min.
Regarding “1(2)-N,N-dimethylcarbamoyl-3-s-butyl-5-vinylthio-1,2,4-triazole [methyl methyl s-butyl vinyl]”, the “ACTIVITY LD50” value stood at 160 p.p.m.

With “1(2)-N,N-dimethylcarbamoyl-3-isopropyl-5-vinylthio-1,2,4-triazole [methyl methyl isopropyl vinyl]”, the “ACTIVITY LD50” value is under 25 p.p.m.

Take “1(2)-N,N-dimethylcarbamoyl-3-s-butyl-5-prop-2-ynylthio-1,2,4-triazole [methyl methyl s-butyl prop-2-ynyl]”: the “ACTIVITY LD50” value was found to be 270 p.p.m.

For “1(2)-N-ethyl-N-methylcarbamoyl-3-t-butyl-5-prop-2-ynylthio-1,2,4-triazole [ethyl methyl t-butyl prop-2-ynyl]”, the “ACTIVITY LD50” value turned out to be 68 p.p.m.

Staying with this series, now noted: Table 2, comparative 1,2,4-triazoles; method of Example 9; 2880 min.
As for “1(2)-diallylcarbamoyl-3-ethylthio-5-methyl-1,2,4-triazole”, the “Plutella maculipennis LD50 values” is over 5000 p.p.m.

As for “1(2)-N-methyl-N-n-butylcarbamoyl-3-methylthio-5-methyl-1,2,4-triazole”, the “Plutella maculipennis LD50 values” was over 5000 p.p.m.

For the compound “1(2)-dimethlcarbamoyl-3-ethylthio-5-methyl-1,2,4-triazole”, the “Plutella maculipennis LD50 values” is on record as 1600 p.p.m.

For “1(2)-pyrrolidinocarbonyl-3-methylthio-5-methyl-1,2,4-triazole”, the “Plutella maculipennis LD50 values” was over 5000 p.p.m.

For the compound “2(2)-dimethylthiocarbamoyl-3-methylthio-5-methyl-1,2,4-triazole”, the “Plutella maculipennis LD50 values” is reported as over 5000 p.p.m.

Turning to “1(2)-diethylcarbamoyl-3-methylthio-5-methyl-1,2,4-triazole”, the “Plutella maculipennis LD50 values” is on record as over 5000 p.p.m.

The next series concerns eggs of the cabbage root fly (Erioischia brassicae). The series can be described thus: Egg hatch of cabbage root fly eggs in test solution. The note with it: Table 4; eggs stored six days, egg hatch counted, two replicates; 8640 min. The format is in vivo. The text has this: This example illustrates the activity of compounds of the invention against the eggs of the cabbage root fly (Erioischia brassicae).
The eggs were then stored for six days and the egg hatch then counted.
For “1(2)-N,N-dimethylcarbamoyl-3-s-butyl-5-(2-chloroallylthio)-1,2,4-triazole [methyl methyl s-butyl 2-chloroallyl]”, the “ACTIVITY LD50” value came to 0.8 p.p.m.

In the case of `C=C(Cl)CSc1nc(C(C)(C)C)nn1C(=O)N(C)C` [methyl methyl t-butyl 2-chloroallyl, 1(2)-N,N-dimethylcarbamoyl-3-t-butyl-5-(2-chloroallylthio)-1,2,4-triazole], the “ACTIVITY LD50” value was 0.22 p.p.m.

Consider “1(2)-N,N-dimethylcarbamoyl-3-isopropyl-5-(2-chloroallylthio)-1,2,4-triazole [methyl methyl isopropyl 2-chloroallyl]”, for which the “ACTIVITY LD50” value is recorded as 0.27 p.p.m.

Turning to `C=C(Br)CSc1nc(C(C)(C)C)nn1C(=O)N(C)C` [methyl methyl t-butyl 2-bromoallyl, 1(2)-N,N-dimethylcarbamoyl-3-t-butyl-5-(2-bromoallylthio)-1,2,4-triazole], the “ACTIVITY LD50” value is 0.57 p.p.m.

As to “1(2)-N,N-dimethylcarbamoyl-3-isopropyl-5-(2-bromoallylthio)-1,2,4-triazole [methyl methyl isopropyl 2-bromoallyl]”, the “ACTIVITY LD50” value came to 0.9 p.p.m.

The next series deals with aphid Megoura viciae. Put plainly: Aphids on sprayed broad bean plants. Format: in vivo. The note with it: Table 6; sprayed infested broad bean plants, 24 hours. As for the experimental part: Broad bean plants 3 to 5 cm. high were infested with aphids and then sprayed with an aqueous dispersion containing varying concentrations of test compound. Each plant was kept under a lamp glass for 24 hours and then examined. In this way an LD50 value for the compounds was calculated.
With `C=C(Cl)CSc1nc(C(C)(C)C)nn1C(=O)N(C)C` [methyl methyl t-butyl 2-chloroallyl, 1(2)-N,N-dimethylcarbamoyl-3-t-butyl-5-(2-chloroallylthio)-1,2,4-triazole], the “ACTIVITY LD50” value was found to be 1.6 p.p.m.

Turning to “1(2)-N,N-dimethylcarbamoyl-3-isopropyl-5-(2-chloroallylthio)-1,2,4-triazole [methyl methyl isopropyl 2-chloroallyl]”, the “ACTIVITY LD50” value came to 1.2 p.p.m.

As for `C=C(Br)CSc1nc(C(C)(C)C)nn1C(=O)N(C)C` [methyl methyl t-butyl 2-bromoallyl, 1(2)-N,N-dimethylcarbamoyl-3-t-butyl-5-(2-bromoallylthio)-1,2,4-triazole], the “ACTIVITY LD50” value is reported as 0.66 p.p.m.
